# Source: patent US12564639B2, “Cationic nanostructures for intra-cartilage delivery of contrast agents and diagnostic uses thereof” (Northeastern University, priority 2019, dated 2026)
# How the values were obtained:
# [1] = Hydrodynamic diameter estimated from molecular weight (Stokes-Einstein equation); type: physicochemical
# Description: As such, its intra-cartilage transport diffusivities (estimated using setup in FIG. 3A) were not affected either (Table 1). The hydrodynamic diameter of Avidin and mAv was estimated from their molecular weights using the Stokes-Einstein equation. The net size of mAv was within the 10 nm limit enabling it to penetrate through the full thickness of cartilage similar to unmodified Avidin.
# [2] = Zeta potential (Zetasizer Nano-ZS90); type: physicochemical; settings: for Zeta potential (ζ): nanopure water, 0.45 mg/mL, Mean ± SD
# Description: • 1. Use the procedure in Section F to conjugate 4 moles of biotin-PEG-IOX with Avidin at its biotin binding sites to synthesize mAv-IOX. • 2. Use Zetasizer Nano-ZS90 to detect the zeta potential of unmodified Avidin and mAv-IOX in DI water; the zeta potential (Q, mV) of Avidin and mAv-IOX should be around 18.3±0.5 mV and 8.69±0.7 mV, respectively. • 3. Obtain 3 mm diameter×1 mm height cylindrical cartilage discs with intact superficial zone (SZ) from femoropatellar grooves of 1-2-week-old bovine knee joints and freeze them in PBS containing protease inhibitors (PI) until further use. • 4. […] Use a freezing point osmometer to balance the osmolality of these contrast agent solutions to 400±20 mOsm/kg by adding 1 M sodium chloride solution dropwise. • 5. […] Secure cartilage explants using low X-ray-absorption foam inside a 20.5 mm CT scan tube. Ensure that the cartilage explant stays secured in the foam during CT imaging. • 7. Take one of the equilibrated cartilage explants from contrast agent solution and gently using Kimwipes to remove solution from the tissue surface. • 8. Set CT35 with an isotropic voxel resolution of 10 μm, 70 kVp tube voltage, 113 μA current, and 200 ms integration time method. The CT data will be saved as DICOM format. ImageJ software will automatically display Hounsfield Unit (HU) by importing DICOM images. • 9. Process the CT imaging data acquired from CT35 using ImageJ software: (i) Go to Image→Stacks→Images to Stack to convert CT imaging data to a cartilage stack. (ii) Go to Image→Stacks→Reslice and select ‘starting at top’ to acquire a new stack showing vertical section of cartilage from superficial zone (SZ) to deep zone (DZ). […] The GAG content (mg/mg wet weight) is calculated as: […]
# PEGylation of Avidin in 1:2 and 1:4 mAv was further confirmed by using H-Class Acquity UPLC (Waters Corp, Milford, MA) equipped with an Acquity UPLC BEH200 Size Exclusion Column (200 Å, 1.7 μm column, 4.6×300 mm) with 20 mM ammonium bicarbonate buffer as the mobile phase at 0.2 mL/min. Avidin was detected at 280 nm. […]
# chondrocytes = settings: incubation with chondrocytes in culture; cited from earlier work
# [3] = Equilibrium uptake in cartilage explants (uptake ratio Ru); settings: 50% GAG depleted cartilage (mid-stage OA)
# Experimental: Cartilage explants were harvested from the femoropatellar groove of 2-3-week-old bovine knees (Research 87, Boylston, MA) with a 3 mm diameter biopsy punch. The cylindrical plugs were then sliced to obtain the superficial 1 mm layer of cartilage, and frozen until use. […] Cartilage disks were equilibrated in 300 μL of 8.5 μM of labeled Avidin, 1:2 mAv or 1:4 mAv in presence of protease inhibitors for 24 h in a 96-well plate at 37° C. on gentle shaking to prevent formation of stagnant layers. To minimize evaporation, the empty wells in the plate were filled with DI water and the plate was wrapped in parafilm. At the end of the experiment, the surfaces of each disk were quickly blotted with Kimwipes and the wet weight was measured. The equilibrium bath fluorescence was measured using a plate reader (Synergy H1, Biotek). The final concentration was calculated based on a linear calibration correlating fluorescence to concentration of labeled Avidin. The moles of solutes absorbed into the cartilage were calculated using the difference between the initial and equilibrium concentration of the bath. The concentration of solutes inside was calculated by normalizing the number of moles inside cartilage to the wet weight of the tissue. The uptake ratio (Ru) was defined as the ratio of the concentration of solutes inside the tissue (Ctissue) to that of the solute in the equilibrium bath (Cbath). […]
# [4] = test system: bovine cartilage explants; settings: cited from earlier work
# [5] = Intra-cartilage diffusion kinetics (non-equilibrium one-dimensional diffusion, transport chamber); settings: 3 μM upstream, 400-600 μm cartilage disk; Mean ± SD
# Experimental: The interior walls of the transport chamber were equilibrated in 0.5% nonfat-dried bovine milk solution in PBS for 15 min to lessen non-specific binding of solutes to inner walls of the transport chamber. Subsequently, the compartments of chamber were rinsed with DI water. 3 μM solution of labeled Avidin or mAv was added to the upstream chamber. A 6 mm diameter cartilage disk of 400-600 μm thickness was placed between the upstream and downstream compartments. Concentration of fluorescently labeled solutes in the downstream chamber was measured over time by exciting the downstream solution using a 480 nm laser line and detecting the emission. Non-equilibrium diffusion curves were thereby obtained by plotting normalized downstream concentration (CD) to upstream concentration (Cu) over time. Effective Diffusivity (DEFF), which is the diffusivity of solutes in cartilage while binding interactions exist within the tissue was estimated as follows:
# [formula] where L corresponds to cartilage thickness, and τLag is the time it takes to reach a steady state flux. τLag was estimated using the time-axis intercept of the linear slope of the normalized concentration versus time.
# [6] = rabbit, in vivo; cited from earlier work
# [7] = test system: IL-1α treated cartilage explants; assay: IL-1α treated cartilage explant culture OA model: GAG loss (DMMB assay); type: cell-based, bovine; settings: 16-day culture
# Description: Tissue explants for all treatment conditions were matched for depth and location to prevent any bias. […] Note that mAv here refers to 1:4 mAv configuration. Media was changed every 2 days and IL-1α was replenished at each medium change. […] IL-1α concentration was chosen as it represents a moderately aggressive cytokine treatment. […] After 16 days of culture, cartilage explants were weighed and digested in proteinase K. The cumulative GAGs released to the media and residual GAGs in the digested explants were measured using the DMMB assay. Nitrite content was measured using the Griess assay as an indicator of nitric oxide (NO) release from tissues. Equal volumes of Griess reagent and culture media collected every two days were mixed and incubated at room temperature for 15 min, and absorbance at 540 nm was measured using a plate reader. Sodium nitrite was used as a standard.
# [8] = test system: chondrocytes in cartilage explants; assay: IL-1α treated cartilage explant culture OA model: chondrocyte metabolism (alamarBlue); type: cell-based; settings: Day 16
# Experimental: (§1) 3 mm diameter cartilage explants harvested from calf knee joints were equilibrated separately in serum free culture media containing 96.2% low-glucose DMEM, 1.0% HEPES, 1.0% NEAA, 1.0% PSA, 0.4% proline and 0.4% ascorbic acid for 48 h at 37° C., 5% CO2 for 2 days prior to treatment. Tissue explants for all treatment conditions were matched for depth and location to prevent any bias. To test the biological effectiveness of mAv-Dex, equilibrated cartilage explants were treated with or without IL-1α (2 ng/mL) for 16 days in combination with (i) a single dose of 100 nM free Dex, (ii) a continuous dose of 100 nM free Dex, (iii) a single dose of 10 μM free Dex (iv) a single dose of fast release mAv-Dex (10 μM Dex) or (v) a single dose of controlled release mAv-Dex (2:1:1) (10 μM Dex). To evaluate the effect of mAv carrier alone on cartilage health, a high one-time dose of 10 μM mAv, which is 10× higher than that used to deliver 10 μM Dex in condition (v) above, was also tested in the absence of IL-1α. Note that mAv here refers to 1:4 mAv configuration. […]
# Chondrocyte viability was analyzed by staining cartilage explants with FDA (4.0 mg/mL) and PI (10.0 mg/mL) for live (green) and dead (red) cells, respectively. […] Cell metabolic activity was estimated by measuring fluorescence at 530 nm excitation and 590 nm emission wavelengths.
# [9] = test system: IL-1α treated cartilage explants; assay: IL-1α treated cartilage explant culture OA model: nitrite release (Griess assay); type: cell-based, bovine; settings: continuous dose 100 nM, Day 8
# Experimental: as §1, with “Dex).” for “Dex). To evaluate the effect of mAv carrier alone on cartilage health, a high one-time dose of 10 μM mAv, which is 10× higher than that used to deliver 10 μM Dex in condition (v) above, was also tested in the absence of IL-1α. Note that mAv here refers to 1:4 mAv configuration.”
# After 16 days of culture, cartilage explants were weighed and digested in proteinase K. The cumulative GAGs released to the media and residual GAGs in the digested explants were measured using the DMMB assay. Nitrite content was measured using the Griess assay as an indicator of nitric oxide (NO) release from tissues. Equal volumes of Griess reagent and culture media collected every two days were mixed and incubated at room temperature for 15 min, and absorbance at 540 nm was measured using a plate reader. […]
# [10] = test system: IL-1α treated cartilage explants; assay: IL-1α treated cartilage explant culture OA model: Safranin-O histology; type: cell-based, bovine; settings: 16 days
# Experimental: (§2) 3 mm diameter cartilage explants harvested from calf knee joints were equilibrated separately in serum free culture media containing 96.2% low-glucose DMEM, 1.0% HEPES, 1.0% NEAA, 1.0% PSA, 0.4% proline and 0.4% ascorbic acid for 48 h at 37° C., 5% CO2 for 2 days prior to treatment. Tissue explants for all treatment conditions were matched for depth and location to prevent any bias. To test the biological effectiveness of mAv-Dex, equilibrated cartilage explants were treated with or without IL-1α (2 ng/mL) for 16 days in combination with (i) a single dose of 100 nM free Dex, (ii) a continuous dose of 100 nM free Dex, (iii) a single dose of 10 μM free Dex (iv) a single dose of fast release mAv-Dex (10 μM Dex) or (v) a single dose of controlled release mAv-Dex (2:1:1) (10 μM Dex). To evaluate the effect of mAv carrier alone on cartilage health, a high one-time dose of 10 μM mAv, which is 10× higher than that used to deliver 10 μM Dex in condition (v) above, was also tested in the absence of IL-1α. Note that mAv here refers to 1:4 mAv configuration. Media was changed every 2 days and IL-1α was replenished at each medium change. […] IL-1α concentration was chosen as it represents a moderately aggressive cytokine treatment.
# Cartilage explants were fixed in 4% formalin, embedded in 0.75% agarose for ease of handling, dehydrated in a graded series of ethanol and xylenes, and embedded in paraffin. Transverse sections (to obtain full thickness cartilage slices with superficial and deep zones) were taken at 5 μm thickness. These sections were stained with 0.5% Safranin O, 0.02% Fast Green and Weigert's iron hematoxylin for GAG detection. Adjacent sections underwent antigen retrieval using 0.1% hyaluronidase, 0.1% pronase in PBS for 30 min at 37° C., then were immunostained for type II collagen using 1 μg/mL mouse IgG1 (clone II-II6B3) or normal mouse IgG1 as isotype control. Antibody detection was performed using a VectaStain Elite ABC kit with 3,3-diaminobenzidine staining. Stained sections were imaged using a Zeiss Axioplan2 equipped with an AxioCam HRc camera.
# [11] = test system: chondrocytes in cartilage explants; assay: IL-1α treated cartilage explant culture OA model: chondrocyte viability (FDA/PI); type: cell-based; settings: Day 16
# Experimental: as §2
# Chondrocyte viability was analyzed by staining cartilage explants with FDA (4.0 mg/mL) and PI (10.0 mg/mL) for live (green) and dead (red) cells, respectively. Slices were washed with PBS and imaged at 4× magnification (Nikon Eclipse Ts2R). The live and dead images were overlaid using ImageJ. At the end of the culture, tissue explants were incubated with media containing 1× resazurin sodium salt (alamarBlue assay) for 3 h in dark at 37° C. and 5% CO2. Cell metabolic activity was estimated by measuring fluorescence at 530 nm excitation and 590 nm emission wavelengths.
# [12] = multiple IA injections, 2.5 mg every 3 days or 0.5 mg/kg; cited from earlier work
# [13] = one week following ACLT, read at 3 weeks, vs free Dex; cited from earlier work
# [14] = IA 40 mg every 3 months for 2 years; cited from earlier work
molecule,measurement,setting,value
1:2 mAv: multi-arm Avidin containing two biotinylated 8-arm PEGs,Diameter (net size),[1],~7.6 nm
same,Zeta potential (ζ),[2],20.3 ± 0.3 mV
RRAAAARRAAAARRAAAARR [CPC+8],uptake by chondrocytes,chondrocytes,not uptaken by the chondrocytes
Avidin: cationic glycoprotein with four biotin binding sites,Diameter (net size),[1],~7.0 nm
same,drop of uptake following 50% GAG depletion compared to healthy condition,[3],13.2 ×
same,"Avidin dose shown not to affect GAG loss, chondrocyte viability or biosynthesis rates",[4],less than 100 μM
same,intra-cartilage effective diffusivity DEFF,[5],8.4 ± 2.0 × 10^−8 cm^2/s
same,intra-cartilage uptake ratio,[6],180
same,presence in cartilage after IA administration,[6],present through the full thickness of cartilage two weeks following its IA administration
same,zeta potential,"[2]; in DI water, 'should be around'",around 18.3±0.5 mV
same,Zeta potential (ζ),[2],18.3 ± 0.5 mV
"C[C@@H]1C[C@H]2[C@@H]3CCC4=CC(=O)C=C[C@]4(C)[C@@]3(F)[C@@H](O)C[C@]2(C)[C@@]1(O)C(=O)CO [Dex, dexamethasone]",suppression of IL-1α induced GAG loss,[7]; continuous dose 100 nM,effectively suppress IL-1α induced GAG loss
same,suppression of IL-1α induced GAG loss,[7]; single dose 100 nM,not effective
same,suppression of IL-1α induced GAG loss,[7]; single dose 10 μM Dex,significantly suppressed IL-1α induced GAG loss
same,rescue of IL-1α reduced cell metabolism rates,[8],not rescued
same,lower nitrite levels compared to single dose of 100 nM Dex,[9],3.5 ×
same,Safranin-O GAG staining,[10]; continuous dose 100 nM,mostly rescued
same,Safranin-O GAG staining,[10]; single dose 100 nM,marginally affected
same,Safranin-O GAG staining,[10]; single dose 10 μM Dex,protected GAG content to a greater extent than at 100 nM
same,rescue of chondrocyte viability,[11]; continuous dose 100 nM,rescued effectively
same,rescue of chondrocyte viability,[11]; single dose 100 nM,not with a single dose
same,rescue of chondrocyte viability,"[11]; single dose 10 μM Dex, listed as free Dex",not as effective
same,inflammation and cartilage protection,[12],significantly reduce inflammation and protect cartilage
same,toxicity of high multi-dose regimen,[12],systemic toxicity in vital organs
Av-Dex: Avidin covalently conjugated with 4 moles of Dexamethasone using its four biotin binding sites,efficacy of single low dose IA injection,[13],"suppressed injury induced joint inflammation, synovitis, incidence of osteophyte formation and restored trabecular properties at 3 weeks significantly greater than free Dex"
"CC1(C)O[C@@H]2C[C@H]3[C@@H]4CCC5=CC(=O)C=C[C@]5(C)[C@@]4(F)[C@@H](O)C[C@]3(C)[C@]2(C(=O)CO)O1 [TCA, triamcinolone acetonide]",cartilage loss,[14],greater cartilage loss compared to saline
